Several values for one entry are separate records, joined by “and”; a condition that tells them apart may be missing. Identical values can stand only once. Activity calls are given as the source filed them.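 The calls were made as follows: active = fitted curve reaching a 35% signal drop at a concentration under 10 µM, within twice the top tested dose; inconclusive = no clear call, values can overlap the other calls; inactive = the rest, including activity opposite to the expected direction.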

Consider 66 compounds from PubChem BioAssay AID652041 (Broad Institute, 2013).

In one assay the test system is P. falciparum HB3 in RBCs, SYBR Green DNA fluorescence. As to the kind of experiment: antimalarial activity against intraerythrocytic HB3 parasites – HB3 strain, red blood cells, SYBR Green, cherry-picked, dose response (AID 652041).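 Also: parasites exposed to compound for 72 hours before the DNA read.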
Conditions: not given
With `Cc1[nH]n(-c2ccccc2)c(=O)c1/C=N/Nc1nncc(-c2ccccc2)n1`, the AC35 is 1.97 µM.

Regarding `O=c1c(CO)cc(CO)cc(CO)c1O`, the AC35 was 20.8 µM.

Consider `Clc1ccccc1C(c1ccccc1)(c1ccccc1)n1ccnc1`, for which the AC35 is 0.645 µM.

As to `CCC(C)n1ncn(-c2ccc(N3CCN(c4ccc(OCC5COC(Cn6cncn6)(c6ccc(Cl)cc6Cl)O5)cc4)CC3)cc2)c1=O` (stereo unspecified), the AC35 was 3.81 µM.

`Cc1ccc(NC(=O)CN(C)C(=O)c2cccnc2Nc2cccc(C(F)(F)F)c2)cc1`: the AC35 is 10.5 µM.

Regarding `Cc1ccc(Sc2cc(C)nc(-c3ccccn3)n2)cc1`, the AC35 is 6.03 µM.

Turning to `Oc1c(I)cc(Cl)c2cccnc12`, the AC35 was 1.67 µM.

As for `C=C(C)COc1ccc(-c2[nH]ncc2-c2ccccc2)c(O)c1`, the AC35 was 1.89 µM.

Consider `Clc1ccc(COC(Cn2ccnc2)c2ccc(Cl)cc2Cl)c(Cl)c1` (stereo unspecified), for which the AC35 was 1.57 µM and 1.95 µM.

Take `O=C(c1ccccc1)c1ccc(Cn2cc(-c3ccccc3)nn2)cc1`: the AC35 is 40.3 µM.

In the case of `Cc1nn(CCC#N)c(N)c1C1(O)C(=O)Nc2c(Cl)cc(Cl)cc21` (stereo unspecified), the AC35 is 7.41 µM.

Consider `CCc1cc(SC#N)cc(C)c1NC(=O)CCl`, for which the AC35 was 7.66 µM.

Turning to `CC(C)N1CCN(c2ccc(OCC3COC(Cn4cncn4)(c4ccc(Cl)cc4Cl)O3)cc2)CC1` (stereo unspecified), the AC35 is 4.53 µM.

Regarding `CCCCNc1c(-c2cccc(-c3ccc(OC)cc3)c2)nc2ccc(C)cn12`, the AC35 is 1.65 µM.

With `COc1cc(/C=N/O)cc(Br)c1OCc1cccc(Cl)c1`, the AC35 is 28.1 µM.

Regarding `COc1cc2cnc(-c3ccccc3)c(C(=O)c3ccc(F)cc3)c2cc1OC`, the AC35 was 21.6 µM.

For the compound `Cc1ccc(S(=O)(=O)Nc2ccc(O)c3cccnc23)cc1`, the AC35 was 6.27 µM.

Regarding `CC(=O)Oc1ccc(OC(C)=O)c(SCCCCCCl)c1`, the AC35 is 2.56 µM.

Take `O=C(CSc1ccc(-c2ccccn2)nn1)c1ccccc1`: the AC35 is 28 µM.

As for `COc1cnc(-c2ccccn2)nc1N(C)c1ccccc1`, the AC35 was 3.46 µM.

Take `O=C(Nc1nnc(SCc2ccc(F)cc2)s1)c1ccccn1`: the AC35 is 1.93 µM.

Regarding `O=C(COc1ccc([N+](=O)[O-])cc1)Nc1nc(-c2ccccn2)cs1`, the AC35 was 6.38 µM.

Regarding `Cc1ccc(NS(=O)(=O)c2ccc(N3CCN(c4ccc(O)cc4)CC3)c([N+](=O)[O-])c2)c(C)c1`, the AC35 is 10.4 µM.

As to `FC(F)(F)c1cccc(N2CCc3cn[nH]c32)c1`, the AC35 was 28.4 µM.

For `O=C(c1ccccc1)c1coc2c1C(=O)c1ccccc1C2=O`, the AC35 was 1.49 µM.

As for `CCC1=NN(C(=O)c2cccc(Br)c2)C(O)(c2ccc(Br)cc2)C1` (stereo unspecified), the AC35 is 12.3 µM.

Take `CCc1ccc(OCc2n[nH]c(=S)n2Cc2ccccc2)cc1`: the AC35 was 34.4 µM.

With `COc1cccc(/C=N/NC(=O)c2nc(-c3ccccc3)cc(-c3ccccc3)n2)c1O`, the AC35 is 7.16 µM.

Take `CC(/C=N/n1c(COc2ccccc2)n[nH]c1=S)=C\c1ccccc1`: the AC35 was 42.2 µM.

With `Cc1cccc(N2CCN(C(=O)C3COc4ccccc4O3)CC2)c1C` (stereo unspecified), the AC35 is 38.9 µM.

For `C=CCOC(Cn1ccnc1)c1ccc(Cl)cc1Cl` (stereo unspecified), the AC35 was 7.38 µM.

`COc1ccc2[nH]c(=O)c(CN(Cc3cccnc3)C(=O)Nc3ccccc3)cc2c1`: the AC35 is 15.7 µM.

With `Cn1nc(C(F)(F)F)c(C#N)c1N1CCN(c2ccc(F)cc2)CC1`, the AC35 was 18.7 µM.

Consider `CCn1c2ccc(C)cc2c2nc3cc(C(=O)O)ccc3nc21`, for which the AC35 was 37.1 µM.

Consider `CCOC(=O)c1ccc(NC(=S)N(Cc2cccnc2)Cc2ccco2)cc1`, for which the AC35 is 28.1 µM.

In the case of `Cc1oc2c(c1C(=O)c1ccccc1)C(=O)C(=O)c1ccccc1-2`, the AC35 was 3.48 µM.

System in the next assay: not listed separately
The assay is described as above. The settings on record: P. falciparum HB3 in RBCs, SYBR Green DNA fluorescence; at 50 µM (top of the series).
`O=C(O)c1c(NC(=O)N2CCCC2)sc2c1CCCC2`: the activity change, negative = inhibition was -0.929% (inactive).

Turning to `Cc1cccc(C)c1N1C(=O)C2ON(c3ccccc3)C(c3ccncc3)C2C1=O` (stereo unspecified), the activity change, negative = inhibition was -11.3% (inactive).

In the case of `CCCOc1ccc2ccccc2c1/C=C1\SC(=O)NC1=O`, the activity change, negative = inhibition is -14.8% (inactive).

`Clc1ccc(-c2n[nH]c3c2CCC3)cc1Cl`: the activity change, negative = inhibition was -19.3% (inactive).

As for `COc1cc2c(c(OC)c1OC)-c1ccc(O)c(=O)cc1[C@@H](NC(C)=O)CC2`, the activity change, negative = inhibition was -18.5% (inactive).

Turning to `CC1(C)CC(=O)C(N=Nc2ccc3ncsc3c2)=C(O)C1`, the activity change, negative = inhibition is -23.1% (inactive).

`O=C1N(c2ccc(Cl)cc2)C(c2cccnc2)N2CCCN12` (stereo unspecified): the activity change, negative = inhibition is -10.4% (inactive).

Regarding `Oc1c(Br)cc(-c2ccccc2)cc1Br`, the activity change, negative = inhibition was -16% (inactive).

In the case of `CC(C)CSc1n[nH]c(=S)s1`, the activity change, negative = inhibition was 1.38% (inactive).

Regarding `CCCn1c2ccccc2c2cc(C(=O)O)ccc21`, the activity change, negative = inhibition was -6.37% (inactive).

For `CC1Oc2ccccc2C=C1/C=N/Nc1ccc(C(=O)O)cc1` (stereo unspecified), the activity change, negative = inhibition is -20.4% (inactive).

Regarding `COc1cccc(C(C)=C2SC(=S)NC2=O)c1`, the activity change, negative = inhibition was -7.61% (inactive).

Turning to `CC1CCN(c2ccc3c(c2)S(=O)(=O)c2ccccc2C3=O)CC1`, the activity change, negative = inhibition is -1.13% (inactive).

In the case of `CC12CCC(O)CC1=CCC1C2CCC2(C)C3=NN=CC3CC12` (stereo unspecified), the activity change, negative = inhibition was -17.5% (inactive).

`CCn1c(CNc2ccc(Cl)cc2)nnc1SCc1ccccc1`: the activity change, negative = inhibition is -25.3% (inactive).

On to `c1ccc(-c2ccc(OCCCn3cncn3)cc2)cc1`, for which the activity change, negative = inhibition was -10.3% (inactive).

`CCCCn1c(=O)c(C(=O)NCc2ccncc2)c(O)c2ccccc21`: the activity change, negative = inhibition is -14% (inactive).

With `CCOc1ccc(N/N=C(/C#N)C(N)=O)cc1`, the activity change, negative = inhibition was -12.5% (inactive).

For `Cc1cc(NS(=O)(=O)c2ccc(C3CCCCC3)cc2)no1`, the activity change, negative = inhibition is 0.534% (inactive).

On to `Nc1nc2sc3c(c2c(=O)s1)CCCC3`, for which the activity change, negative = inhibition is -20.8% (inactive).

`CC1=NN(C(N)=S)C(=O)C1N=Nc1cccc(Cl)c1C` (stereo unspecified): the activity change, negative = inhibition is -12.3% (inactive).

Consider `CCOC(=O)c1ccc(N2C(=O)CC(N3CCC(O)(c4ccc(Cl)cc4)CC3)C2=O)cc1` (stereo unspecified), for which the activity change, negative = inhibition is -5.74% (inactive).

`COC(OC)c1ccc(C#N)c(SCc2ccccc2)n1`: the activity change, negative = inhibition is -17.5% (inactive).

In the case of `CCCOc1ccc(S(=O)(=O)n2cc(F)c(=O)[nH]c2=O)cc1`, the activity change, negative = inhibition is -21.3% (inactive).

`CCCSC(=S)c1c(C)[nH]n(-c2ccccc2)c1=O`: the activity change, negative = inhibition is -14.2% (inactive).

Take `c1ccc(Cn2cc(-c3cccnc3)cn2)cc1`: the activity change, negative = inhibition was -23.9% (inactive).

In the case of `COc1ccc(N(C(=O)c2ccncc2)S(=O)(=O)c2ccccc2)cc1`, the activity change, negative = inhibition is -28% (inactive).

Regarding `COc1ccc(N(C(=O)c2ccncc2)S(=O)(=O)c2ccc(F)cc2)cc1`, the activity change, negative = inhibition was -13.3% (inactive).

`Cc1nc2ccc(C(=O)NCc3ccc4c(c3)OCO4)cc2s1`: the activity change, negative = inhibition was -24.7% (inactive).

In the case of `CC(C)NC(=O)NC(=O)COC(=O)c1ccc([N+](=O)[O-])cc1Cl`, the activity change, negative = inhibition was -11.6% (inactive).
